In PubChem BioAssay (NCI):
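Protocol summary: plate cells (96-well), add compound at 5 concentrations, incubate 48 h, interpolate endpoints linearly. At the GI50, growth is halved. TGI denotes the concentration required for complete inhibition of growth.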

How the values were obtained:
Assay in all cases: inhibition of tumour cell growth, NCI panel, 48 h
A549 NSCLC = tested on: A549 NSCLC
SNB-19 CNS = tested on: SNB-19 CNS
SK-MEL-28 melanoma = tested on: SK-MEL-28 melanoma
OVCAR-3 ovarian = tested on: OVCAR-3 ovarian
HOP-62 NSCLC = tested on: HOP-62 NSCLC
SF-295 CNS = tested on: SF-295 CNS
MDA-MB-435 = tested on: MDA-MB-435
K-562 leukemia = tested on: K-562 leukemia
OVCAR-4 ovarian = tested on: OVCAR-4 ovarian
CCRF-CEM leukemia = tested on: CCRF-CEM leukemia

| SMILES | GI50 (A549 NSCLC) [µM] | TGI (A549 NSCLC) [µM] | GI50 (SNB-19 CNS) [µM] | TGI (SNB-19 CNS) [µM] | GI50 (SK-MEL-28 melanoma) [µM] | TGI (SK-MEL-28 melanoma) [µM] | GI50 (OVCAR-3 ovarian) [µM] | TGI (OVCAR-3 ovarian) [µM] | GI50 (HOP-62 NSCLC) [µM] | TGI (HOP-62 NSCLC) [µM] | GI50 (SF-295 CNS) [µM] | TGI (SF-295 CNS) [µM] | GI50 (MDA-MB-435) [µM] | TGI (MDA-MB-435) [µM] | GI50 (K-562 leukemia) [µM] | TGI (K-562 leukemia) [µM] | GI50 (OVCAR-4 ovarian) [µM] | TGI (OVCAR-4 ovarian) [µM] | TGI (CCRF-CEM leukemia) [µM] | GI50 (CCRF-CEM leukemia) [µM] |
| --- | --- | --- | --- | --- | --- | --- | --- | --- | --- | --- | --- | --- | --- | --- | --- | --- | --- | --- | --- | --- |
| COc1cc2c(c(OC)c1OC)-c1ncc3cc4c(cc3c1C2)OCO4 | 21.1 | 97.9 | > 100 | > 100 | 54.6 | > 100 | 15.5 | 38.1 | 21.7 | 46.6 | 15.6 | 39.8 | 13.2 | 32.6 | 2.27 | > 100 | 46.3 | > 100 | – | – |
| Cc1c(/C=N/NC(=O)c2ccc(Cl)cc2)c(=O)n(-c2ccccc2)n1C | – | > 100 | – | > 100 | – | > 100 | – | > 100 | – | > 100 | – | > 100 | – | – | – | > 100 | – | > 100 | > 100 | – |
| C/C(CC(=O)Nc1cccc(Cl)c1C)=N\NC(=O)c1ccncc1 | – | > 100 | – | – | – | > 100 | – | > 100 | – | > 100 | – | > 100 | – | – | – | > 100 | – | – | > 100 | – |
| COc1cc(C(=O)N2CCN(c3ncccn3)CC2)c(N)cc1OCc1ccccc1 | > 100 | > 100 | > 100 | > 100 | > 100 | > 100 | 85.6 | > 100 | – | – | > 100 | > 100 | > 100 | > 100 | > 100 | > 100 | > 100 | > 100 | > 100 | > 100 |
| CC(=O)O[C@H]1CCC2[C@@H]3CCC4Nc5[nH]ncc5C[C@]4(C)C3CC[C@@]21C (stereo partly specified) | – | > 100 | – | > 100 | – | – | – | > 100 | – | > 100 | – | > 100 | – | – | – | > 100 | – | > 100 | 66.5 | – |
| O=S(=O)(c1ccccc1)C1CN2OC1(S(=O)(=O)c1ccccc1)CC2c1ccc(Br)cc1 (stereo unspecified) | – | > 100 | – | > 100 | – | > 100 | – | > 100 | – | > 100 | – | > 100 | – | – | – | > 100 | – | > 100 | > 100 | – |
| COc1ncc(-c2ccc3ncnc(Nc4cccc(Cl)c4)c3c2)cc1NS(=O)(=O)C1CC1 | – | – | 3.92 | > 100 | > 100 | > 100 | – | – | – | – | – | – | > 100 | > 100 | > 100 | > 100 | – | – | > 100 | > 100 |
| N#CC(C(=O)C(=O)Nc1ccc(Cl)cc1)c1ccccc1 (stereo unspecified) | – | > 100 | – | > 100 | – | > 100 | – | > 100 | – | > 100 | – | > 100 | – | – | – | > 100 | – | > 100 | > 100 | – |
| O=[N+]([O-])c1ccc(N2N=C(c3ccc(NCc4nc5ccccc5[nH]4)cc3)CC2c2ccco2)cc1 (stereo unspecified) | – | > 100 | – | > 100 | – | > 100 | – | 80.2 | – | > 100 | – | 74.7 | – | – | – | > 100 | – | 64.8 | > 100 | – |
| CC(C)C(=O)NS(=O)(=O)c1ccccc1 | – | > 100 | – | > 100 | – | > 100 | – | > 100 | – | > 100 | – | > 100 | – | – | – | > 100 | – | > 100 | > 100 | – |
